Measurements from US9624170B2, “4-(piperrazin-1-yl)-pyrrolidin-2-one compounds as monoacylglycerol lipase (MAGL) inhibitors” (TAKEDA PHARMACEUTICAL COMPANY LIMITED, priority 2013, dated 2017).

What follows are compounds tested against T1, human MAGL (His-hMAGL) (Homo sapiens, UniProt Q99685) (assay: Measurement of MAGL inhibitory activity by mass spectrometry). Settings: 10 μM test compound; substrate 2-arachidonylglycerol, arachidonic acid by RapidFire-mass spectrometry.
T1 construct: made in house; host or cells: Escherichia coli BL21(DE3)
T1 sequence (Q99685 1-303): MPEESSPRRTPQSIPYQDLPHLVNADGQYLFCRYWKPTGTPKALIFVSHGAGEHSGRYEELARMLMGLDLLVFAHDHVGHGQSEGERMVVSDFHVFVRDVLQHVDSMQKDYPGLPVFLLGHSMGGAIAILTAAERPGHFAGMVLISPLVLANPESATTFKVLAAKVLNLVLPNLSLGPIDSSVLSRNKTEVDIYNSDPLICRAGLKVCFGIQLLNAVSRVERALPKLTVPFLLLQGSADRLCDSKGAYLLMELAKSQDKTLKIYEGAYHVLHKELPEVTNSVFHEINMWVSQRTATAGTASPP
Type: biochemical
Procedure: Thereafter, to each well was added 150 μM 2-arachidonylglycerol (Tocris Bioscience) by 5 μL, and the mixture was incubated at room temperature for 10 min. Then, 2% formic acid (Wako Pure Chemical Industries, Ltd.) was added by 10 μL to discontinue the reaction. Furthermore, acetonitrile (50 μL) containing 3 μM arachidonic acid-d8 (Cayman Chemical Company) was added and the mixture was stirred. The amount of arachidonic acid in the obtained enzyme reaction mixture was calculated by measuring by RapidFire-mass spectrometry and correcting by the amount of arachidonic acid-d8. High Throughput online solid phase extraction was performed using RapidFire 300TM system (Agilent Technologies, Inc.). […] The injection needle was washed with ultrapure water (500 millisecond) and acetonitrile (500 millisecond) to minimize carry-over. […] The RapidFire300 system was controlled by RapidFire UI software version 3.6 (Agilent Technologies, Inc.). The mass spectrometry of the resultant product was performed using […] triple quadrupole mass spectrometer (AB SCIEX) equipped with an electrospray ion sauce (Turbolon SprayTM) in a negative selected reaction monitoring (SRM) mode. The conditions of SRM are shown below. The parameters of the instrument were optimized as follows: capillary temperature 600° C., ion spray voltage -4.5 kV, collision gas 8, curtain gas 15 psi, ion source gas 1 60 psi, ion source gas 2 60 psi. The mass spectrometer was controlled by AnalystTM software version 1.5.1 (AB SCIEX). The peak area integration was analyzed using RapidFire integrator software version 3.6 (Agilent Technologies, Inc.). MAGL inhibitory rate (%) was calculated according to the following calculation formula.

inhibition at 10 µM | SMILES
100% | Cc1nc(C)c(-c2cccc(N3CC(N4CCN(C(=O)c5nccs5)CC4)CC3=O)c2)s1 (stereo not shown) [Example 161, 1-(3-(2,4-dimethyl-1,3-thiazol-5-yl)phenyl)-4-(4-(1,3-thiazol-2-ylcarbonyl)piperazin-1-yl)pyrrolidin-2-one]
99% | O=C(c1nccs1)N1CCN(C2CC(=O)N(c3ccc4c(ccn4-c4ccc(C(F)(F)F)nc4)c3)C2)CC1 (stereo not shown) [Example 111, 4-(4-(1,3-thiazol-2-ylcarbonyl)piperazin-1-yl)-1-(1-(6-(trifluoromethyl)pyridin-3-yl)-1H-indol-5-yl)pyrrolidin-2-one]
95% | CNC(=O)c1ccc(-c2cccc(N3CC(N4CCN(C(=O)c5nccs5)CC4)CC3=O)c2)cc1 (stereo not shown) [Example 104, N-methyl-3′-(2-oxo-4-(4-(1,3-thiazol-2-ylcarbonyl)piperazin-1-yl)pyrrolidin-1-yl)biphenyl-4-carboxamide]

Same assay, conditions: MAGL inhibitory rate, test compound 10 μM, His-hMAGL, substrate 2-arachidonylglycerol, RapidFire-mass spectrometry

SMILES | inhibition at 10 µM
O=C(c1nccs1)N1CCN(C2CC(=O)N(c3cccc(-c4ccc(F)cc4Cl)c3)C2)CC1 (stereo not shown) [Example 275, 1-(2′-chloro-4′-fluorobiphenyl-3-yl)-4-(4-(1,3-thiazol-2-ylcarbonyl)piperazin-1-yl)pyrrolidin-2-one] | 103%
Cc1ccnc(-n2ccc3cc(N4CC(N5CCN(C(=O)c6nccs6)CC5)CC4=O)ccc32)c1 (stereo not shown) [Example 252, 1-(1-(4-methylpyridin-2-yl)-1H-indol-5-yl)-4-(4-(1,3-thiazol-2-ylcarbonyl)piperazin-1-yl)pyrrolidin-2-one] | 103%
O=C(c1nccs1)N1CCN(C2CC(=O)N(c3ccc(-c4ccccc4F)cc3)C2)CC1 (stereo not shown) [Example 179, 1-(2′-fluorobiphenyl-4-yl)-4-(4-(1,3-thiazol-2-ylcarbonyl)piperazin-1-yl)pyrrolidin-2-one] | 98%
Cc1c(-c2ccccc2)cccc1N1CC(N2CCN(C(=O)c3nccs3)CC2)CC1=O (stereo not shown) [Example 249, 1-(2-methylbiphenyl-3-yl)-4-(4-(1,3-thiazol-2-ylcarbonyl)piperazin-1-yl)pyrrolidin-2-one] | 96%
Cc1cc(C#N)ccc1-c1cccc(N2CC(N3CCN(C(=O)c4nccs4)CC3)CC2=O)c1 (stereo not shown) [Example 322, 2-methyl-3′-(2-oxo-4-(4-(1,3-thiazol-2-ylcarbonyl)piperazin-1-yl)pyrrolidin-1-yl)biphenyl-4-carbonitrile] | 103%
CS(=O)(=O)Nc1cccc(-c2ccc(N3CC(N4CCN(C(=O)c5nccs5)CC4)CC3=O)cc2)c1 (stereo not shown) [Example 216, N-(4′-(2-oxo-4-(4-(1,3-thiazol-2-ylcarbonyl)piperazin-1-yl)pyrrolidin-1-yl)biphenyl-3-yl)methanesulfonamide] | 97%

Other lines, results leading:

inhibition at 10 µM | SMILES
98% | O=C(c1cscn1)N1CCN([C@@H]2CC(=O)N(c3ccc4c(ccn4-c4ccc(Cl)cc4)c3)C2)CC1 [Example 423, (4R)-1-(1-(4-Chlorophenyl)-1H-indol-5-yl)-4-(4-(1,3-thiazol-4-ylcarbonyl)piperazin-1-yl)pyrrolidin-2-one]
99% | O=C(c1nccs1)N1CCN(C2CC(=O)N(c3ccc4c(c3)CCN4C(=O)Cc3ccccc3)C2)CC1 (stereo not shown) [Example 392, 1-(1-(phenylacetyl)-2,3-dihydro-1H-indol-5-yl)-4-(4-(1,3-thiazol-2-ylcarbonyl)piperazin-1-yl)pyrrolidin-2-one]
98% | Cc1cc(Cl)ccc1-c1cccc(N2CC(N3CCN(C(=O)c4nccs4)CC3)CC2=O)c1 (stereo not shown) [Example 356, 1-(4′-chloro-2′-methylbiphenyl-3-yl)-4-(4-(1,3-thiazol-2-ylcarbonyl)piperazin-1-yl)pyrrolidin-2-one]
96% | O=C(c1cscn1)N1CCN([C@@H]2CC(=O)N(c3ccc4c(ccn4-c4ccc(C(F)(F)F)cc4)c3)C2)CC1 [Example 418, (4R)-4-(4-(1,3-Thiazol-4-ylcarbonyl)piperazin-1-yl)-1-(1-(4-(trifluoromethyl)phenyl)-1H-indol-5-yl)pyrrolidin-2-one]
